Assays:
normoglycemic rats = experiment: Hypoglycemic activity in normal rats; format: in vivo; conditions: fasted normal Wistar rats; Glibenclamide 5 mg/kg per oral; reduction vs basal glucose, measured 1-6 hr, time of value not stated
Description: Hypoglycemic Activity in Normal Rats:
Wistar rats of either sex weighing 150-180 gms were fasted overnight and divided into control, standard and test groups each consisting of 6 rats. The standard drug, Glibenclamide, was administered in the dose of 5 mg/kg per oral to the rats. All test compounds were administered in the dose of 200 mg/kg per oral to the test groups. Both standard and test drugs were administered as 1% gum acacia suspension. Control group received vehicle only. Blood glucose levels were measured before drugs administration at 0 hr and at 1 hr, 2 hr, 4 hr and 6 hr after drugs administration. Percent reduction of blood glucose levels at different time intervals was calculated with reference to basal glucose levels. All the blood glucose estimations were done using GOD/POD method and were analyzed using Auto Blood Analyzer (Technicon RA-1000, Bayer Diagnostics, Ireland). The standard drug (Glibenclamide) has shown a percent inhibition of glucose 65.1 and all the test compounds (1 to 9 examples) have shown percent inhibition in range of 48.5 to 63.2 (FIG. 1)

[1] = tested on: Streptozotocin induced diabetic rats; experiment: Hypoglycemic activity in Streptozotocin induced diabetic rats; format: in vivo; conditions: Streptozotocin (50 mg/kg i.v.) diabetic Wistar rats; Glibenclamide 1 mg/kg daily for 14 days; vs reading before drug administration
Description: Hypoglycemic Activity in Streptozotocin Induced Diabetic Rats:
Wistar rats of either sex weighting 150-180 gms were used in this study and were divided into control, standard and test groups each consisting of 6 rats. Basal glucose levels were taken for all rats. Diabetes was induced by administering Streptozotocin in the dose of 50 mg/kg intravenously to the rats in all the groups. After a period of 48 hrs glucose levels were again measured and rats that have shown glucose levels of 400±20 mg/dl were selected. Glibenclamide (1 mg/kg) and the test compounds (50 mg/kg) were administered as 1% gum acacia suspension daily for a period of 14 days. At the end of 14 days after the last dose, blood glucose levels were again measured and the percent reduction in blood glucose was measured for all the rats in all the groups with respect to the initial reading before drug administration.

For `COc1ccc(Cl)cc1C(=O)NCCc1ccc(S(=O)(=O)NC(=O)NC2CCCCC2)cc1` [Glibenclamide], the “percent inhibition of glucose” value (normoglycemic rats) was 65.1% and the “hypoglycemic activity expressed as percent inhibition of blood glucose levels” value [1] was 68.2%.

— patent publication US6730704B2, “1-(aryloxy)propionoyl-2-arylsulfonyl hydrazines, process for preparation thereof and use thereof as hypoglycemic agents” (Council of Scientific & Industrial Research, priority 2002, dated 2004)
